According to patent US8440623B2, “Polymer stabilized neuropeptides” (Nektar Therapeutics, priority 1999, dated 2013):

How the values were obtained:
[1] = Enzymatic stability in blood plasma; assay type: in vitro ADME
Description: (§1) The major contribution is that PEGylation improved brain and blood enzymatic stability dramatically. […] After PEGylation, those half-lives increased to hours for endomorphin II.

[2] = Enzymatic stability in brain tissue; assay type: in vitro ADME
Description: as §1

rat brain = experiment: In situ rat brain perfusion (brain uptake); conditions: radiolabeled compound
Protocol: The protocol for the rat brain perfusion experiments was approved by the Institutional Animal Care and Use Committee at the University of Arizona. The in situ perfusion, capillary depletion, brain extract and protein binding studies were carried out as previously reported (Williams et al., J. Neurochem., 66 (3), pp 1289-1299, 1996).
The protocol for the rat brain perfusion experiments was approved by the Institutional Animal Care and Use Committee at the University of Arizona. The in situ perfusion studies were carried out as previously reported (Williams et al., J. Neurochem., 66 (3), pp 1289-1299, 1996).

male ICR mice = experiment: Analgesia assay (radiant heat tail flick), mice; assay type: in vivo, mouse; conditions: intravenous, FIG. 3
Protocol: Male ICR mice (20-25 g) or male Sprague-Dawley rats (250-300 g) (Harlan Sprague-Dawley Inc., Indianapolis, Ind.) were used for these experiments. Animals were housed four per cage in an animal care facility maintained at 22±0.5° C. with an alternating 12 hr light-dark cycle. Food and water were available ad libitum. Animals were used only once.
All drugs were dissolved in sterile saline and were prepared so that the proper dose would be delivered in 5 μl (i.c.v.), 100 μl (i.v.), 100 μl (s.c.) and 100 μl (i.m.) of the vehicle. All rodents were recorded for baseline latency before injection of the drug. A morphine control was used with the i.c.v. and i.v. injection procedures to compare the analgesic efficacies of test compounds. […]
The rodents were placed into restraint holders and their tails were properly placed under the radiant heat beam. The beam was turned on and the time until the animal flicked their tail from under the beam was recorded at each time point. […]
The raw data (recorded times) was converted to a percentage of the maximum possible effect (% M.P.E.) which was determined as 15 seconds. % M.P.E. was determined by the following equation: % M.P.E.=(Recorded time−Baseline)/(15−Baseline)×100
These percentages then allow the compound to be plotted according to % M.P.E. vs. Time. The curve can then be analyzed to determine the area under the curve (AUC).

Row | Compound | half-life ([1]; blood plasma) [min] | half-lives in either brain or blood (in words) [1] | half-life [2] [min] | in situ uptake RBr value (rat brain) | time mark at which 50% M.P.E. is seen (male ICR mice) [min]
1 | NC(=O)[C@H](Cc1ccccc1)NC(=O)[C@H](Cc1ccccc1)NC(=O)[C@@H]1CCCN1C(=O)[C@@H](N)Cc1ccc(O)cc1 [endomorphin II, H-Tyr-Pro-Phe-Phe-NH2] | 3.2 | on the order of minutes | 13 | – | –
2 | C[C@@H](NC(=O)[C@@H](N)Cc1ccc(O)cc1)C(=O)NCC(=O)N[C@@H](Cc1ccccc1)C(=O)NNC(=O)[C@H](Cc1ccccc1)NC(=O)CNC(=O)[C@@H](C)NC(=O)[C@@H](N)Cc1ccc(O)cc1 [native biphalin, (H-Tyr-D-Ala-Gly-Phe-NH—)2] | – | – | – | 7.26±0.11 | 90
3 | H-Tyr-Gly-Gly-Phe-Leu-Arg-Arg-Ile-Arg-Pro-Lys-NH2 (H-YGGFLRRIRPK-NH2) [dynorphin] | – | on the order of minutes | – | – | –
4 | Tyr-D-Pen-Gly-Phe-D-Pen [I^125 DPDPE] | – | – | – | 3.54±0.30 | –
